Assay results: US20070116785A1, “Nitric oxide as an anti-viral agent, vaccine and vaccine adjuvant” (priority 2005, published 2007)
Entries after “also recorded” stand apart in the source; their conditions may differ.

How the values were obtained:
[1] = test system: Bovine Respiratory Disease (BRD)
[2] = test system: influenza A/Victoria/H3N2; test: Plaque assay in MDCK cells with gNO-exposed virus, several concentrations and dosing techniques (Example 2); format: cell-based
[3] = test system: Highly Pathogenic Avian Influenza (HPAI) H7N3; format: cell-based
influenza A virus = test: Plaque assay in MDCK cells with virus exposed to nitric oxide gas (Example 1); format: cell-based; details: virus exposed to 160 ppm nitric oxide gas for 1, 2 and 3 hours; vs air control; FIG. 1
influenza A/H3N2 = test: Plaque assay in MDCK cells with gNO-exposed virus (Example 2); format: cell-based
Bovine Respiratory Virus = test: In vivo bovine feedlot study (Example 6); set-up: species or system calves
Description: A similar in vivo bovine study as in Example 5 was conducted with one hundred and fifty-eight (158) calves. The calves were shipped into a commercial feedlot, wherein some of the animals at the feedlot were infected with BRV. The […] calves were treated with either: (1) 4 minutes of approximately 160-260 ppm nitric oxide gas (30-60 breaths); or (2) conventional antibiotic, antiviral and immunization medications. 42 calves were treated with gNO, while 116 calves were treated with conventional antibiotics.

[N]=O [gNO, Nitric oxide]
clinical scores (industry standard signs) ([1]; 160 ppm gNO, prophylactic vs early detection group, FIG. 17): more effective in achieving low clinical scores for the prophylactic group than for the early detection group
IRT Temperature ([1]; 160 ppm gNO, prophylactic vs early detection group, FIG. 18): more effective in achieving low IRT temperatures for the prophylactic group than for the early detection group
calves' temperatures and clinical scores ([1]; NO given at Early Detection (IRT) or at Clinical Detection): rapidly resolved
infection after 6 months ([1]; all NO treated animals regardless of dosing/timing, induction herd: 13 out of 15 required antibiotic treatment): none of the NO treated animals demonstrated infection
prevention of infection ([1]; bovine, in vivo): effective in preventing infection
safety of delivery ([1]; bovine, in vivo): delivered safely without incident
Mean Temperature (IRT) ([1]; prophylactic group, mean over 10 days, […], FIG. 16): roughly 36.1 °C
infectivity of influenza A/Victoria/H3N2 ([2]; 40 ppm gNO continuously over 4 hours, FIG. 10): no effect
infectivity of influenza A/Victoria/H3N2 ([2]; 80 ppm gNO continuously for 4 hours, FIG. 7, 10): not effective; also recorded: no effect
infectivity of influenza A/Victoria/H3N2 ([2]; 160 ppm gNO and above (160 ppm and 800 ppm), continuously over 4 hours, vs controls and lower concentrations, FIG. 11): effective in reducing the infectivity
concentration of influenza A/Victoria/H3N2 ([2]; 160 ppm gNO for 4 continuous hours, FIG. 8): effective in reducing the concentration of influenza A/Victoria/H3N2; also recorded: significant effect
infectivity of influenza A/Victoria/H3N2 ([2]; 800 ppm gNO continuously over 4 hours, FIG. 11): no real improved effect compared to 160 ppm
infectivity of influenza A/Victoria/H3N2 ([2]; intermittent 160 ppm gNO, 30 minutes once every hour for 4 hours, FIG. 12): more effective than the single 30 minute exposure; also recorded: effective as an anti-infective agent against influenza A/Victoria/H3N2
concentration of influenza A/Victoria/H3N2 ([2]; single 30 minute exposure to 160 ppm gNO, tracked over 4 hours, FIG. 9, 12): effective in reducing concentration of influenza A/Victoria/H3N2; also recorded: as effective as three (3) thirty (30) minute doses of gNO
concentration of HPAI H7N3 [3]: about 330 PFU/mL
infectivity of HPAI H7N3, continuous exposure compared with single treatment [3]: comparatively better than the single treatment
infectivity of HPAI H7N3 ([3]; after 3 hours): under 50 PFU/mL
influenza A virus in MDCK cell cultures (plaques) (influenza A virus): significantly less influenza A virus as compared to the air control
infectivity of influenza A/H3N2 (influenza A/H3N2; 80 ppm gNO continuously for 4 hours, FIG. 4): not as effective as the 160 ppm concentration
concentration of influenza A/H3N2 (viruses capable of infecting a cell) (influenza A/H3N2; 160 ppm gNO for 1, 2 and 3 hours, vs room air control, FIG. 2): significantly reduced the concentration of influenza A/H3N2
concentration of influenza A/H3N2 (influenza A/H3N2; single 30 minute exposure to 160 ppm gNO, plaque assay to 20 hours after exposure, FIG. 5): decreases concentration of influenza A/H3N2 over 20 hours
calves exhibiting clinical signs of infection (Bovine Respiratory Virus) (Bovine Respiratory Virus; after 15 days, 4 minutes of approximately 160-260 ppm nitric oxide gas (30-60 breaths), 4/42): 9.5%
effectiveness as antiviral agent reducing infectivity relative to conventional vaccines, antiviral agents and antibiotics (Bovine Respiratory Virus; feedlot calves, 15 days): almost twice as effective
